This note sets out measurements from PubChem BioAssay (NCI).

Molecules are shown by their SMILES. Values joined by “and” are separate entries in the source; they are usually repeats but may differ in a detail not shown here. Identical values can stand only once.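 Grown in 96-well plates, cells were treated for 48 hours with each compound at five concentrations. Insufficient inhibition: endpoint recorded as highest concentration tested. Abbreviation: GI50, concentration required for 50% inhibition of growth. Definition used: TGI = concentration required for complete inhibition of growth.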

What all share (assay): DTP human tumour cell line panel, 48 h
In assay [1] the test system is MDA-MB-231 breast.
The test system of assay [2] is OVCAR-5 ovarian.
Assay [3] has as its system HCT-15 colon.
The test system of assay [4] is KM12 colon.
Assay [5] deals with OVCAR-4 ovarian.
The test system of assay [6] is HT29 colon.
Assay [7] concerns SF-539 CNS.
Assay [8] concerns LOX IMVI melanoma.
The test system of assay [9] is MCF7 breast.
The subject of assay [10] is T-47D breast.

What is called GI50 is the concentration giving 50% growth inhibition. Usually TGI stands for the concentration at which net growth stops. A lower TGI goes with more potent growth arrest.

`COc1ccc(C2c3cc4c(c(OC)c3CC3OCC(=O)C32)OCO4)cc1OC` (centres undefined): the GI50 was less than 0.01 µM in [1]; more than 100 µM in assay [2]; less than 0.01 µM in assay [3]; less than 0.01 µM in [4]; 15.7 µM in [5]. In addition, the TGI in assay [1] is 0.123 µM; in [2], more than 100 µM; in [3] it was more than 100 µM; in assay [4], 0.221 µM and 1.01 µM; in assay [5], more than 100 µM; in assay [6], 0.104 µM.

Consider `C=C1C(=O)O[C@H]2[C@H]1CC/C(COC(=O)c1cccc3ccccc13)=C\CC[C@@]1(C)O[C@@H]21`, for which the GI50 in assay [1] is 1.69 µM; in [2] it was 2.27 µM; in assay [3], 1.19 µM; in assay [4], 2.07 µM; in assay [7], 1.29 µM; in assay [8], 1.35 µM. The GI50 in assay [5] is 1.7 µM; in [6] it was 0.696 µM; in assay [9] it was 0.722 µM. Moreover, the concentration for total growth inhibition (TGI) is 3.68 µM in assay [1]; 5.58 µM in assay [2]; 2.89 µM in assay [3]; 4.99 µM in assay [4]; 2.7 µM in [7]; 2.8 µM in [8]. The TGI was found to be 3.43 µM in assay [5], 2.42 µM in [6] and 2.84 µM in assay [9].

In the case of `COc1ccc(/C=c2\sc3nnc(CCC(=O)Nc4cccc(C(F)(F)F)c4)n3c2=O)cc1`, the TGI in [2], in assay [3], in [4], in assay [7], in assay [8] and in assay [5] was more than 100 µM in each case. Moreover, the total growth inhibition concentration (TGI) in assay [6] was more than 100 µM.

With `CN=c1ss/c(=N\C(=S)N(C)C)n1C1CCCCC1`, the TGI is more than 31.6 µM in [2]; more than 31.6 µM in assay [3]; more than 31.6 µM in assay [4]; more than 100 µM in [7]; more than 31.6 µM in [8]; more than 31.6 µM in assay [5]. This compound returned a TGI in assay [6] of more than 31.6 µM.

For the compound `COC(=O)[C@H]1CC(=O)C=C2CCCC21` (some centres undefined), the TGI in assay [3], in assay [4], in [7], in assay [8], in assay [5] and in assay [6] was more than 100 µM each time.

On to `CC[C@@]1(O)C(=O)OCc2c1cc1n(c2=O)Cc2cc3c(Cl)c4c(cc3nc2-1)OCO4`, for which the GI50 in [1] is 0.00975 µM and 0.0722 µM; in [10] it was less than 0.001 µM; in [2], 0.985 µM and 0.193 µM; in assay [3], 0.215 µM and 0.178 µM; in assay [4], 0.162 µM and 0.108 µM; in [7], less than 0.001 µM. The GI50 in assay [8] was less than 0.001 µM. Besides, the TGI is more than 100 µM in [1]; more than 100 µM in assay [10]; 1.69 µM in assay [2]; more than 100 µM in assay [3]; more than 100 µM in assay [4]; 0.0924 µM in assay [7]. Besides, the TGI in assay [8] is 0.218 µM and 0.321 µM; in assay [6], 7.85 µM; in assay [9], 0.193 µM.

As to `CCOP(=O)(CCN1CCN(CCCCCOc2cc3c(cc2OC)C(=O)N2CCC[C@H]2C=N3)CC1)OCC`, the GI50 in [1] was 4.55 µM; in [10], 2.44 µM; in assay [2], 27.7 µM; in assay [3], 80 µM; in assay [4], 12.1 µM; in [7], 3.6 µM. The GI50 in [5] was 14.9 µM; in [6] it was 6.84 µM; in assay [9], 1.89 µM. For the same compound, the TGI was more than 100 µM in assay [1]; 9.38 µM in assay [10]; 76.6 µM in assay [2]; more than 100 µM in [3]; 36.3 µM in [4]; 17.7 µM in assay [7]. Besides, the TGI in assay [5] was 57.1 µM; in assay [6], more than 100 µM; in assay [9] it was 23.8 µM.

As to `CC(N)CN.CC(N)CN.[Cl-].[O]=[Os+2]=[O]` (centres undefined), the GI50 in assay [2] was more than 100 µM; in assay [3] it was more than 100 µM; in [4] it was more than 100 µM; in assay [7], more than 100 µM; in assay [8], 27 µM; in assay [5] it was more than 100 µM. Besides, the TGI in assay [2], in assay [3], in assay [4], in [7], in assay [8] and in assay [5] was more than 100 µM throughout.

Turning to `O=C1C=CC(=O)c2c1cc1ccccc1c2O`, the TGI in [1] was 4.25 µM; in assay [10], 3.49 µM; in assay [2], 32.5 µM; in assay [3], 13.3 µM; in [4] it was 26.4 µM; in assay [7], 25 µM. For the same compound, the figures for the TGI in [8], in [5] and in [6] were 9.06 µM, 5.67 µM and 24 µM, respectively.

For the compound `COC(=O)CSc1n[nH]c(-c2ccccc2)n1`, the TGI in assay [2], in assay [3], in assay [4], in assay [7], in assay [5] and in [6] was more than 100 µM each time.

For `CC1(C)C(=O)CCC(=O)C(C)(C)C2=CC=C(O2)C(C)(C)C(=O)CCC(=O)C(C)(C)C2=CC=C1O2`, the TGI in assay [2], in assay [3], in assay [4], in assay [8], in assay [5] and in [6] was more than 100 µM throughout.

Take `O=S1c2ccccc2N=C(c2ccc3ccccc3c2)CC1c1ccccc1F` (centres undefined): the TGI in [2], in assay [3], in assay [4], in assay [7], in [8] and in [5] was more than 100 µM in each case. The TGI in [6] was more than 100 µM.

Turning to `COc1ccc2oc(-c3cc4cc(OC)ccc4o3)cc2c1`, the TGI in assay [2], in assay [3], in assay [4], in [8] and in assay [5] was more than 100 µM in each case.

Regarding `CCOC(=O)C/C(N)=C(\C#N)C(=O)OCC`, the TGI in assay [2], in assay [3], in assay [4], in [7], in assay [8] and in assay [6] was more than 100 µM each time.
